Data on 17 compounds can be found in patent US6727278B1, “Pharmaceutically active agents that impede amyloid formation in vivo” (DMS Pharmaceutical Inc., priority 1986, dated 2004).

One series concerns DMS (dense microspheres). The series can be described thus: Test 1: in vitro disruption of DMS on a glass slide, Congo Red red-green birefringence. To be noted: for anti-amyloid activity in vitro: concentration of about 10^−2 M; for activity in the in vitro assay: 10^−2-to-10^−3 M concentration range. The source says:
TEST 1 In vitro Disruption of DMS on a Glass Slide
Homogeneous DMS preparations are placed by droplet on a clean dry glass slide. The volume and number of DMS used is optional but is recommended to be at least several thousand to facilitate interpretation (see Example 1 below). Larger samples are more costly but are easier and more unequivocal to examine. The DMS are mechanically disrupted using a stainless steel spatula scraping and pressing the DMS against a glass slide in repetitive manual back and forth motions for one minute. The slide is allowed to air dry. A few drops of Congo Red stain are then added to the dried slide and gently passed over the dried disrupted DMS for 30 seconds and the stain is then drained off the slide onto tissue paper or filter paper. The slide is then examined in the light microscope, the latter fitted with crossed polarizing lenses to assess red-green congophilic birefringence.
The result is an unequivocal red-to-green (“apple green”) birefringence similar to the red-to-apple green birefringence found in the senile-plaque amyloid of Alzheimer patients, and in quantities proportional to the volume of DMS applied to the slide initially.
For test purposes, a corresponding DMS sample is contacted with a possible pharmacological agent, and the DMS disruption/staining procedure as described above is repeated. Many variations are possible, e.g., the active agent may be applied to the DMS in solution, before application to the slide, or to the DMS on the slide. In any event, if the agent prevents the red-green birefringence observed in the negative control slide (no agent present), then the active agent should be tested further for efficacy against cerebral amyloidosis.
Approximately 80,000 homogeneously extracted DMS were placed in a droplet from a Pasteur pipette onto a glass slide, and the droplet was air dried. The DMS adhered to the glass slide. Acetylcholine (20 mM) in physiological saline was added in a droplet, as a possible test compound, to DMS.
The DMS were mechanically disrupted, in the presence of the test compound, as described above and then were allowed to air dry. A control slide was treated exactly in the same manner, except that the test compound was not added. Congo Red stain was added, and the reaction products were examined, as previously described.

The conditions of series [1]: cited from earlier work.
For another series, the system named is human DMS. The series can be described thus: In vivo assay: amyloid formation induced by intracerebral injection of human DMS with the compound, Congo Red histology. The arrangement: species or system Male Wistar rats. The settings on record: for Mean Lesion Area Composed of CBADs: percentage of lesion area, ** = significant decrease from untreated controls; for inhibition of amyloid formation in vivo: in-tissue levels in the range of 10^−5 to 10^−6 M.

The conditions of series [2]: cited from earlier work. The source holds these as a separate data set.
[3] abbreviates: 10^−5 − 10^−6M, CBADs = Congophilic Birefringent Amyloid Deposits.

Structures are written as SMILES.

Regarding `O=C(O)c1cccnc1C(=O)O` [2,3-pyridine-dicarboxylic acid], the “anti-amyloid activity in vitro” value in the series with DMS (dense microspheres) is reported as “anti-amyloid activity”.

Take `Cc1cc(Cl)nc(N)n1` [2-amino-4-chloro-6-methyl pyrimidine]: the “anti-amyloid activity in vitro” value with DMS (dense microspheres) is on record as “anti-amyloid activity”.

`Nc1nc(O)nc2[nH]ncc12` [4-amino-6-hydroxypyrazolo [3,4-D] pyrimidine]: the “anti-amyloid activity in vitro” value with DMS (dense microspheres) is reported as “anti-amyloid activity”.

For `CCc1nc(N)nc(N)c1-c1ccc(Cl)cc1` [Daraprim, Pyrimethamine], the oral absorption entry in series [1] is on record as “completely absorbed orally”. The “Mean Number of CBADs Per Animal” value in the series with human DMS (setting [3]) stood at 4. The “Mean Lesion Area Composed of CBADs” value in the series on human DMS (10^−5 − 10^−6M) is given as 0.2**. Moreover, in the series on human DMS, the “inhibition of amyloid formation in vivo” value is “inhibit amyloid formation in vivo”.

With `Cc1noc(NS(=O)(=O)c2ccc(N)cc2)c1C` [Gantrisin, Sulfisoxazole], the absorption and excretion result in series [1] (route not stated) is “rapidly absorbed and excreted”. Further, the figures for the “Mean Number of CBADs Per Animal” value in the series with human DMS (10^−2M) and with human DMS (setting [3]) were 1 and 108, respectively. The results for the “Mean Lesion Area Composed of CBADs” value with human DMS (10^−2M) and in the series on human DMS (10^−5 − 10^−6M) were 0.1** and 8.4, respectively.

For the compound `O=C([O-])c1cc(=O)c2c(OCC(O)COc3cccc4oc(C(=O)[O-])cc(=O)c34)cccc2o1.[Na+].[Na+]` [Intal, Cromolyn Sodium], the “fraction entering the lungs” value in series [1] (administered as a powder from an inhaler) is recorded as “about 10%”. In addition, the oral absorption entry in series [1] is recorded as “poorly absorbed orally”. The “Mean Number of CBADs Per Animal” value with human DMS (setting [3]) is listed as 2. Moreover, in the series with human DMS (10^−5 − 10^−6M), the “Mean Lesion Area Composed of CBADs” value is reported as 0.4**.

Turning to `OCCN(CCO)c1nc(N2CCCCC2)c2nc(N(CCO)CCO)nc(N3CCCCC3)c2n1` [Persantine, 2,6-bis-(diethanolamino)-4,8-dipiperidinopyrimido-(5,4-d)-pyrimidine], the results for the “Mean Number of CBADs Per Animal” value in the series with human DMS (10^−2M) and with human DMS (setting [3]) were 4 and 146, respectively. In addition, the “Mean Lesion Area Composed of CBADs” value is 0.2** with human DMS (10^−2M) and 14.6 in the series with human DMS (10^−5 − 10^−6M).

Regarding `Cl.Nc1c2c(nc3ccccc13)CCCC2` [THA, 9-amino-1,2,3,4-tetrahydroacridine hydrochloride], the “anti-amyloid activity in vitro” value in the series with DMS (dense microspheres) is on record as “anti-amyloid activity”.

On to `NC(=O)N1c2ccccc2C=Cc2ccccc21` [carbamazepine], for which, in the series on DMS (dense microspheres), the “activity in the in vitro assay” value was “inactive”.

For `CC[C@H]1OC(=O)[C@H](C)[C@@H](O[C@H]2C[C@@](C)(OC)[C@@H](O)[C@H](C)O2)[C@H](C)[C@@H](O[C@@H]2O[C@H](C)C[C@H](N(C)C)[C@H]2O)[C@](C)(O)C[C@@H](C)C(=O)[C@H](C)[C@@H](O)[C@]1(C)O` [erythromycin, Erythromycin], in series [1] (in vivo), the half-life result is recorded as “about sixteen”. Also, the “Mean Number of CBADs Per Animal” value in the series on human DMS (setting [3]) turned out to be 2. The “Mean Lesion Area Composed of CBADs” value with human DMS (10^−5 − 10^−6M) is 0.2**. Besides, the “inhibition of amyloid formation in vivo” value in the series on human DMS is “inhibit amyloid formation in vivo”. Further, the solubility in water result in series [2] is listed as “water-soluble”.

On to `CN(C)C(=O)Oc1cccc([N+](C)(C)C)c1` [neostigmine methylsulfate], for which, in the series on DMS (dense microspheres), the “activity in the in vitro assay” value was “not to be active”.

Consider `O=P(O)(O)O[C@H]1[C@H](OP(=O)(O)O)[C@@H](OP(=O)(O)O)[C@H](OP(=O)(O)O)[C@@H](OP(=O)(O)O)[C@H]1OP(=O)(O)O` [phytic acid], for which the “activity in the in vitro assay” value in the series with DMS (dense microspheres) is recorded as “not to be active”.

Take `CN(C)C(=O)Oc1ccc[n+](C)c1` [pyridostigmine bromide]: the “activity in the in vitro assay” value with DMS (dense microspheres) is recorded as “not to be active”.

Consider `CSc1ccc2c(c1)N(CCC1CCCCN1C)c1ccccc1S2` (stereo not shown) [thioridazine], for which, in the series on DMS (dense microspheres), the “activity in the in vitro assay” value was “inactive”.

Regarding `O=c1n(CCCN2CCN(c3cccc(Cl)c3)CC2)nc2ccccn12` [trazodone], in the series with DMS (dense microspheres), the “activity in the in vitro assay” value was “inactive”.

Turning to `O=C1N(Cc2ccccc2)C2C[S+]3CCCC3C2N1Cc1ccccc1` (stereo not shown) [trimethophan camsylate], the “activity in the in vitro assay” value in the series with DMS (dense microspheres) was “inactive”.

Consider `CCCC(CCC)C(=O)O` [valproic acid], for which the “activity in the in vitro assay” value with DMS (dense microspheres) was “inactive”.
